What was measured:
[1] = Binding affinity to HT3AT sequence of bulge DNA by fluorescence quenching
[2] = Binding affinity to DA12:BA14 sequence of bulge DNA by fluorescence quenching
[3] = Binding affinity to HT3AGTT sequence of bulge DNA by fluorescence quenching
[4] = Binding affinity to HT3AGT sequence of bulge DNA by fluorescence quenching
[5] = Binding affinity to HT3AGCTT sequence of bulge DNA by fluorescence quenching
[6] = Binding affinity to HT3AGTA sequence of bulge DNA by fluorescence quenching
HT4AGTT bulged DNA = assay: Binding affinity to HT4AGTT sequence of bulge DNA by fluorescence quenching
Nucleic Acid = assay: Binding affinity to DA12:DAc12 oligomer sequence of bulge DNA by fluorescence quenching; assay type: nucleic-acid assay

SMILES | Kd [1] [µM] | Kd [2] [µM] | Kd [3] [µM] | Kd [4] [µM] | Kd [5] [µM] | Kd [6] [µM] | Kd (HT4AGTT bulged DNA) [µM] | Kd (Nucleic Acid) [µM]
CN[C@H]1[C@@H](O[C@@H]2c3cc4ccccc4cc3[C@@H]3[C@H]2C=C[C@@]32C(=O)C=Cc3ccc(OC)cc32)O[C@H](C)[C@H](O)[C@@H]1O | 13 | 0.8 | 0.13 | 4.1 | 1.7 | 1.4 | 0.24 | 
CN[C@H]1[C@H](O[C@@H]2c3cc4c(cc3[C@@H]3[C@H]2OC(=O)[C@@]32C(=O)C=Cc3c(C)cc(OC)cc32)[C@@](O)([C@H]2COC(=O)O2)C=C4)O[C@@H](C)[C@H](O)[C@@H]1O | 10 | 2.18 | 0.033 | 20.6 | 0.71 | 12.5 | 0.026 | 307

Next, values leading:

Kd [1] [µM] | Kd [2] [µM] | Kd [3] [µM] | Kd [4] [µM] | Kd [5] [µM] | Kd [6] [µM] | Kd (HT4AGTT bulged DNA) [µM] | Kd (Nucleic Acid) [µM] | SMILES
10 | 0.6 | 0.08 | 8.4 | 2.1 | 0.22 | 0.11 |  | CN[C@H]1[C@@H](O[C@H]2c3cc4ccccc4cc3[C@H]3[C@@H]2C=C[C@]32C(=O)C=Cc3ccc(OC)cc32)O[C@H](C)[C@H](O)[C@@H]1O
8.2 | 0.4 | 0.2 | 14 | 1.8 | 0.39 | 0.19 |  | CN[C@H]1[C@H](O[C@H]2c3cc4ccccc4cc3[C@H]3[C@@H]2C=C[C@]32C(=O)C=Cc3ccc(OC)cc32)O[C@H](C)[C@H](O)[C@@H]1O
9.2 | 0.43 | 1.6 | 5.5 | 1.95 | 0.44 | 1.5 |  | CN[C@H]1[C@H](O[C@@H]2c3cc4ccccc4cc3[C@@H]3[C@H]2C=C[C@@]32C(=O)C=Cc3ccc(OC)cc32)O[C@H](C)[C@H](O)[C@@H]1O
